How the values were obtained:
[1] = test system: primary human chondrocytes; experiment: WST-1 cell proliferation assay in primary human chondrocytes with IL-1β; type: cell-based; settings: IL-1β 5 ng/mL, concentrations up to 5 mM, n=6
Excerpt: Normal cartilage tissues. Articular cartilages were harvested from the femoral condyles and the tibial plateaus, which were obtained from autopsy services at the hospital of UVA and approved by the Institutional Review Board. All tissue samples were graded according to a modified Mankin scale, and only cartilages without evidence of osteoarthritis were used as a source of chondrocytes. The interval between death and the time the cartilages were harvested from these knee joints in the laboratory were at least 24 h and ranged up to 96 h. Cartilage shavings were harvested at the operation room and placed in tissue culture medium (DMEM, 10% FBS, penicillin, streptomycin), and shipped to the laboratory at 4° C. The tissues were processed in the laboratory within 24 h after harvest.
Chondrocytes were isolated from the cartilage by collagenase digestion and maintained in continuous monolayer cultures in DMEM containing 10% FBS. Cell viability after chondrocyte isolation by collagenase digestion of normal cartilage was >95%, determined by the typan blue stain (Sigma-Aldrich). Experiments were performed with primary or first passage cells. When necessary, trypsin will be used for cell passage.
Human chondrocytes were seeded in a 96-well plate (5×10^4/well) and incubated with culture medium overnight. […]

IL-6 = experiment: Serum IL-6 ELISA in LPS-induced systemic inflammation in mice; type: in vivo, mouse; settings: LPS 10 mg/kg I.P., compound 300 mg/kg I.V.
Experimental: Male C57BL6/J mice (8 to 10-week-old, 20-25 g) purchased from Charles River were used in this study. Mice were kept in the animal facility of the School of Medicine, University of Virginia (UVa). All experimental procedures were approved by the Ethics Committee on Animal Research of Medical School, UVa and are in accordance with the Guidelines of the National Council for Animal Experimentation Control (CONCEA).
Moderate endotoxemia by LPS was induced with a single dose (10 mg/Kg, i.p.) of LPS (Escherichia coli 0111:B4, Sigma Chemical Co., St. Louis, MO, United States), 30 min after intravenous injection of NAG or NDX1 or NDX2 or the vehicle (saline). Two doses (200 mg/kg body weight and 300 mg/kg body weight) were tested for NAG, NDX1 and NDX2. Animals without any treatment were used to obtain the baseline data. Six hours after LPS treatment, inflammation assays were performed as described below. A total of 40 animals were randomly divided into 5 groups (8 mice/group): non-treatment (NT); 10 mg/Kg LPS plus saline (LPS); 10 mg/Kg LPS plus NAG (LPS+NAG); 10 mg/Kg LPS plus NDX1 (LPS+NDX1); and 10 mg/Kg LPS plus NDX2 (LPS+NDX2). The experiment was duplicated.
TNFa and IL-6 concentrations in the serum were determined using enzyme-linked immunosorbent assay (ELISA) according to the manufacturer's instructions. […] The resultant solutions were read at 450 nm on a microplate reader.

TNFα = TNFα ELISA in LPS-activated primary mouse peritoneal macrophages; type: cell-based; settings: LPS 100 ng/mL; NDX1 and NDX2 0.01, 0.1, 1 mM; NAG 0.1 and 1 mM; n=8
Experimental: • 1. Non treatment (NT) • 2. LPS 100 ng/mL • 3. LPS 100 ng/mL+NDX1 dose1* • 4. LPS 100 ng/mL+NDX1 dose2* • 5. LPS 100 ng/mL+NDX1 dose3* • 6. LPS 100 ng/mL+NDX2 dose1 • 7. LPS 100 ng/mL+NDX2 dose2 • 8. LPS 100 ng/mL+NDX2 dose3 • 9. LPS 100 ng/mL+NAG dose2 • 10. LPS 100 ng/mL+NAG dose3 (*dose 1, 2, 3 were selected as low, middle and high dose with no cytotoxicity from the cytotoxic assay)
The peritoneal macrophages were isolated from peritoneal cavity, and cultured in Dulbecco's modified Eagle's medium (DMEM, Gibco BRL, Gaithersburg, MD) supplemented with 10% fetal bovine serum (FBS) (Hyclone Laboratories, Logan, VT) and 100 IU/mL penicillin G and 100 µg/mL streptomycin, in a humidified atmosphere of 5% carbon dioxide at 37° C. Cells will grow on a 96-well plate and co-treated with 100 ng/ml LPS (Sigma-Aldrich) 0.5 hours after addition of BNAGs and NAG. Twenty-four hours later, the cell number was counted by using the WST-1 kit (Fisher Scientific). After removal of the supernatant, […] new medium was added into each cell. […] Each sample was determined at 450 nm on a microplate reader.
The amounts of IL-6 and TNFα were measured by a commercial ELISA kit (Sigma-Aldrich), following the instructions provided by the manufacturer. […] The resultant solutions were read at 450 nm on a microplate reader.

Structure (SMILES): CC(=O)N[C@H]1C(O)O[C@H](CO)[C@@H](O)[C@@H]1O (stereo partly drawn) [NAG, N-acetyl glucosamine]
- effect on cell growth / toxicity (WST-1) [1]: could prevent inhibition of cell proliferation induced by IL-1β
- decrease of serum level of IL-6 (IL-6): significantly decrease serum levels
- reduction of TNFa production (ELISA) (TNFα): could significantly reduce IL-6 and TNFa production

From patent US20260191887A1, “METHODS OF TREATING INFLAMMATION” (THERAPEUTIKOS, INC., priority 2022, published 2026)
